Assays:
[1] = biological target: Histone deacetylase (HDAC1 and HDAC2) (Homo sapiens, UniProt Q13547+Q92769); experiment: Inhibition of HDAC1/HDAC2 in human HeLa cells using Boc-Lys(acetyl)-AMC as substrate after 30 mins by fluorescence assay; assay type: cell-based
HEL [2] = experiment: Cytotoxicity against human HEL cells assessed as growth inhibition after 48 hrs by MTT assay; assay type: functional, cell-based
[3] = Cytotoxicity against human HCT116 cells assessed as growth inhibition after 48 hrs by MTT assay; assay type: functional, cell-based; settings: HCT-116, 48 h
[4] = Cytotoxicity against human U937 cells assessed as growth inhibition after 48 hrs by MTT assay; assay type: functional, cell-based; settings: U-937, 48 h
[5] = Cytotoxicity against human 3AO cells assessed as growth inhibition after 48 hrs by MTT assay; assay type: functional, cell-based
[6] = Cytotoxicity against human MDA cells assessed as growth inhibition after 48 hrs by MTT assay; assay type: functional, cell-based
[7] = Cytotoxicity against human ES2 cells assessed as growth inhibition after 48 hrs by MTT assay; assay type: functional, cell-based; settings: ES-2, 48 h
[8] = Cytotoxicity against human KG1 cells assessed as growth inhibition after 48 hrs by MTT assay; assay type: functional, cell-based; settings: KG-1, 48 h
HeLa = experiment: Cytotoxicity against human HeLa cells assessed as growth inhibition after 48 hrs by MTT assay; assay type: functional, cell-based
HEL [9] = experiment: Cytotoxicity against human HEL cells assessed as growth inhibition after 48 hrs by MTT assay in presence of SAHA; assay type: functional, cell-based
HEL [10] = experiment: Cell cycle arrest in human HEL cells assessed as accumulation at G1 phase at 0.5 uM after 48 hrs by propidium iodide staining-based flow cytometric analysis (reference value: 47.87%); assay type: functional
HEL [11] = experiment: Cell cycle arrest in human HEL cells assessed as accumulation at G2 phase at 0.5 uM after 48 hrs by propidium iodide staining-based flow cytometric analysis (reference value: 5.28%); assay type: functional
HEL [12] = experiment: Cell cycle arrest in human HEL cells assessed as accumulation at S phase at 0.5 uM after 48 hrs by propidium iodide staining-based flow cytometric analysis (reference value: 46.88%); assay type: functional

SMILES	IC50 [1] [µM]	IC50 (HEL [2]) [µM]	IC50 [3] [µM]	IC50 [4] [µM]	IC50 [5] [µM]	IC50 [6] [µM]	IC50 [7] [µM]	IC50 [8] [µM]	IC50 (HeLa) [µM]	IC50 (HEL [9]) [µM]	Activity (HEL [10]) [%]	Activity (HEL [11]) [%]	Activity (HEL [12]) [%]
CCCC(C)(COc1no[n+]([O-])c1S(=O)(=O)c1ccccc1)C(=O)NO (stereo not drawn)	> 1000	71.5	66.1	25.4	88.7	60.5	93.3	4.06	–	–	–	–	–
O=C(CCCCCCOc1no[n+]([O-])c1S(=O)(=O)c1ccccc1)NO	0.054	9.33	4.69	9.93	–	1.21	7.73	4.27	–	–	–	–	–
O=S(=O)(c1ccccc1)c1c(OCCCCCCO)no[n+]1[O-]	> 1000	2.16	–	–	–	–	–	–	–	–	–	–	–
O=C(COCCOCCOc1no[n+]([O-])c1S(=O)(=O)c1ccccc1)NO	4.3	3.73	11.7	12.1	19.4	15.8	18.1	5.38	5.14	–	–	–	–
O=C(CCCCOc1no[n+]([O-])c1S(=O)(=O)c1ccccc1)NO	0.13	1.03	2.18	2.91	4.3	2.53	2.53	1.91	3.65	–	–	–	–
O=C(COCCOc1no[n+]([O-])c1S(=O)(=O)c1ccccc1)NO	1.5	6.79	13.4	8.15	19.8	15.1	8.69	7.4	–	–	–	–	–
O=S(=O)(c1ccccc1)c1no[n+]([O-])c1S(=O)(=O)c1ccccc1	> 1000	0.69	–	–	–	–	–	–	–	0.53	53.4	3.3	43.29
O=C(CCCCCCC(=O)Nc1ccccc1)NO [VORINOSTAT]	–	–	–	–	–	–	–	–	–	–	–	0	20.02
O=C(CCCCCCCOc1no[n+]([O-])c1S(=O)(=O)c1ccccc1)NO	0.063	10.8	–	9.3	–	2.7	1.32	0.63	5.03	–	–	–	–
O=C(CCCOc1no[n+]([O-])c1S(=O)(=O)c1ccccc1)NO	0.047	0.67	–	3.3	22	6.2	3.78	1.48	4.79	–	–	–	–
O=C(/C=C/c1ccc(Oc2no[n+]([O-])c2S(=O)(=O)c2ccccc2)cc1)NO	0.15	2.41	8.09	16.1	38.1	25.6	24.1	2.75	10.4	–	–	–	–
O=C(Cc1ccc(Oc2no[n+]([O-])c2S(=O)(=O)c2ccccc2)cc1)NO	0.14	13	14.2	5.01	22.2	15	4.13	1.8	10.4	–	–	–	–
O=C(NO)c1cccc(Oc2no[n+]([O-])c2S(=O)(=O)c2ccccc2)c1	1.6	2.6	4.57	6.49	9.94	13.9	4.19	1.86	4.67	–	–	–	–
O=C(NO)c1ccc(Oc2no[n+]([O-])c2S(=O)(=O)c2ccccc2)cc1	0.047	0.92	2.7	4.73	4.35	6.66	2.19	1.24	1.73	–	–	–	–
CC(C)(COc1no[n+]([O-])c1S(=O)(=O)c1ccccc1)C(=O)NO	> 1000	5.01	–	12.5	18.3	9.55	6.88	6.08	–	–	–	–	–
O=C(/C=C/COc1no[n+]([O-])c1S(=O)(=O)c1ccccc1)NO	3.7	–	–	–	57.7	47.7	19.1	–	8.74	–	–	–	–
COc1cc(C(=O)NO)ccc1Oc1no[n+]([O-])c1S(=O)(=O)c1ccccc1	7.3	5.55	5.03	3.64	1.24	8.02	3.55	1.65	2.26	–	–	–	–
